Data: PubChem BioAssay (NCI)
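Assay format: 96-well plates, 48-hour exposure. Here, GI50 denotes the concentration required for 50% inhibition of growth. At the TGI there is no net growth.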

How the values were obtained:
Assay in all cases: DTP human tumour cell line panel, 48 h
SN12C renal = test system: SN12C renal
IGROV1 ovarian = test system: IGROV1 ovarian
SK-MEL-28 melanoma = test system: SK-MEL-28 melanoma
U251 CNS = test system: U251 CNS
OVCAR-3 ovarian = test system: OVCAR-3 ovarian
LOX IMVI melanoma = test system: LOX IMVI melanoma
HOP-62 NSCLC = test system: HOP-62 NSCLC
SF-268 CNS = test system: SF-268 CNS
MDA-MB-231 breast = test system: MDA-MB-231 breast
MCF7 breast = test system: MCF7 breast

Compound | TGI (SN12C renal) [µM] | TGI (IGROV1 ovarian) [µM] | TGI (SK-MEL-28 melanoma) [µM] | TGI (U251 CNS) [µM] | TGI (OVCAR-3 ovarian) [µM] | TGI (LOX IMVI melanoma) [µM] | TGI (HOP-62 NSCLC) [µM] | TGI (SF-268 CNS) [µM] | GI50 (MDA-MB-231 breast) [µM] | TGI (MDA-MB-231 breast) [µM] | GI50 (IGROV1 ovarian) [µM] | GI50 (SK-MEL-28 melanoma) [µM] | GI50 (OVCAR-3 ovarian) [µM] | GI50 (MCF7 breast) [µM] | TGI (MCF7 breast) [µM] | GI50 (HOP-62 NSCLC) [µM] | GI50 (SF-268 CNS) [µM] | GI50 (SN12C renal) [µM] | GI50 (U251 CNS) [µM] | GI50 (LOX IMVI melanoma) [µM]
CCCCCCc1cc(C(=O)Nc2cccc(C(F)(F)F)c2)nc(N)n1 | > 100 | > 100 | > 100 | > 100 | > 100 | > 100 | > 100 | > 100 | – | – | – | – | – | – | – | – | – | – | – | –
O=C(/C(=C/c1ccc([N+](=O)[O-])cc1)c1ccccc1)c1ccccc1 | – | > 100 | 5.63 | – | 5.64 | – | 6.12 | > 100 | 3.16 | > 100 | 3.25 | 2.27 | 2.36 | 3.2 | > 100 | 2.78 | 3.55 | – | – | –
CCOC(=O)C(=O)Nc1c(CC)cccc1C(C)C | > 100 | > 100 | > 100 | > 100 | > 100 | > 100 | > 100 | > 100 | – | – | – | – | – | – | – | – | – | – | – | –
O=c1[nH]c2ccccc2nc1-c1c[nH]c2ccccc12 | > 100 | > 100 | > 100 | > 100 | > 100 | > 100 | > 100 | > 100 | 7.38 | > 100 | 1.26 | > 100 | 9.57 | 93.4 | > 100 | > 100 | > 100 | > 100 | > 100 | > 100
Cc1cc2c(C)n(Cc3ccc(Cl)cc3Cl)nc2c(C#N)c1C | > 100 | > 100 | > 100 | > 61.9 | > 100 | > 100 | 49.7 | > 100 | – | – | – | – | – | – | – | – | – | – | – | –
C[C@]12CC[C@H]3[C@@H](CCC4=CC(=O)CC[C@@H]43)[C@@H]1CC[C@@H]2OC(=O)CCc1ccccc1 | 29.7 | 42 | 37 | 28.4 | 30 | 29.1 | 39.6 | 29.6 | 18.9 | 42.2 | 20.5 | 16.8 | 15.8 | 15.3 | 31.1 | 20.5 | 15.1 | 15.2 | 15.1 | 15.6
CCN(C(=O)N1CCN(c2cc3c(cc2F)c(=O)c(C(=O)O)cn3C2CC2)CC1)c1nc(-c2ccc(C)cc2)cs1 | > 100 | > 100 | > 100 | > 20.9 | 2.47 | – | > 100 | > 100 | – | – | 0.354 | 0.687 | 0.368 | 1.31 | > 100 | 1.41 | 1.06 | 0.365 | 1.04 | –
COc1ccc(N=c2ssc3c(=S)ssc23)cc1 | > 100 | 26.3 | 55.6 | 96.7 | 61.7 | 34.1 | > 100 | > 100 | – | – | – | – | – | – | – | – | – | – | – | –
Brc1cccc(C2SCc3nc4ccccc4n32)c1 (stereo not given) | 33.2 | 98.9 | 47.9 | 36.3 | 32.6 | 28.6 | 40.7 | > 100 | – | – | – | – | – | – | – | – | – | – | – | –
CCCCCCCCCCCC(=O)OCCOCCOCCOCCOCCOCc1ccc(OC)cc1 | > 100 | > 100 | > 100 | > 100 | > 100 | > 100 | > 100 | > 100 | – | – | – | – | – | – | – | – | – | – | – | –
O=C1C(=O)N(c2ccc(Cl)c(Cl)c2)C(=O)C(=O)C1c1nc2ccccc2s1 | > 100 | > 100 | > 100 | > 100 | > 100 | > 100 | > 100 | > 100 | – | – | – | – | – | – | – | – | – | – | – | –
C=CC(=O)N(C)[C@H]1C[C@H]2OC(C)(C1OC)n1c3ccccc3c3c4c(c5c6ccccc6n2c5c31)C(=O)NC4 (stereo not given in full) | 0.931 | – | 2.08 | 0.913 | 0.851 | 0.67 | 0.176 | 1.26 | 0.0783 | 1.04 | – | 0.369 | 0.16 | 0.123 | > 50 | 0.0193 | 0.0599 | 0.0521 | 0.123 | 0.0823
CCN=C1C=CC(=C(c2ccc(N)cc2)c2ccc(N(CC)CC)c(C)c2)C=C1 | 1.15 | 4.01 | 1.96 | 1.59 | 1.26 | – | 1.73 | 2.09 | 0.219 | 0.654 | 0.537 | 0.394 | 0.368 | – | – | 0.316 | 0.407 | 0.201 | 0.124 | –
CCOC(=O)C(C)(c1cn(C)c2ccccc12)c1cn(C)c2ccccc12 | – | > 100 | > 100 | > 100 | > 100 | – | > 100 | – | – | – | – | – | – | – | – | – | – | – | – | –
CN(C)c1nc(=Nc2ccc3ccccc3c2)ss1 | > 100 | > 100 | > 100 | > 100 | > 100 | – | > 100 | > 100 | – | – | – | – | – | – | – | – | – | – | – | –
CS(=O)(=O)Oc1cccc(/C=N/N=C(\N)NO)c1 | > 100 | > 100 | > 100 | > 100 | > 100 | – | > 100 | > 100 | – | – | – | – | – | – | – | – | – | – | – | –
Cn1cnc2nc(Cl)nc(NC(C)(C)C(C)(C)O)c21 | > 100 | > 100 | – | > 100 | > 100 | – | > 100 | > 100 | – | – | – | – | – | – | – | – | – | – | – | –
C[Si](C)(C)OC1(C#N)C2C3CC4C2C(=O)C2C4C3C21 (stereo not given) | > 100 | > 100 | > 100 | > 100 | > 100 | – | > 100 | > 100 | – | – | – | – | – | – | – | – | – | – | – | –
COc1ccc(OC)c(NC(=O)CCC/C(CC(=O)c2ccc(O)c(OC)c2)=N\NC(=O)C[N+](C)(C)C)c1 | > 100 | > 100 | > 100 | > 100 | > 100 | > 100 | > 100 | > 100 | – | – | – | – | – | – | – | – | – | – | – | –
